# Source: US20130190365A1, “Use of Deferiprone and Methods to Treat and/or Prevent Friedreich Ataxia Resulting from Intracellular Mishandling of Iron” (priority 2006, published 2013)
# How the values were obtained:
# [1] = 52-week twice daily oral toxicity study in non-iron-loaded cynomolgus monkeys; type: in vivo
# Procedure: As part of a larger study on the potential toxicity of iron chelators, we evaluated the toxicity of deferiprone in normal monkeys receiving 150 mg/kg/day (75 mg/kg twice daily) for 1 year.
# To determine the toxicity of deferiprone in non-iron-loaded cynomolgus monkeys following twice daily oral (gavage) administration for 52 consecutive weeks, and to evaluate the regression of any toxic effect during a 4-week treatment-free period.
# (§1) Groups of 4 male and 4 female monkeys (2 to 3 years old) were dosed by nasogastric intubation at (0.5% w/v aqueous carboxymethylcellulose vehicle) 75 mg/kg deferiprone twice daily (bid), with 6-8 hours between doses, for at least 364 days.
# (§2) Clinical signs, body weights and food intake were assessed at frequent intervals. Ophthalmological and cardiovascular examinations were carried out in Weeks 17, 30, 43, 56 and 60. Hematology, coagulation, clinical chemistry and urine parameters were measured at baseline and in Weeks 8, 16, 30, 41, 56 and 60. Blood samples were taken on the first day of dosing, and in Weeks 17 and 56 for assessment of the serum deferiprone time-concentration profile. A full necropsy was performed on each animal, selected organs weighed, and histopathological examination of abnormalities and selected tissues conducted.
# intracellular iron pools = conditions: macrophages, hepatocytes and cardiomyocyte cell lines; cited from earlier work
# [2] = Perdue Pegboard test in Friedreich ataxia patients; type: in vivo, human; conditions: for Perdue pegboard (number of nails inserted with the two hands alone+together): after trial
# Description: (§3) The International Cooperative Ataxia Rating Score (ICARS) was used to assess the symptoms of ataxia before and after 1-5 months (Cano et al. International cooperative ataxia rating scale (ICARS): Appropriate for studies of Friedreich's ataxia? Mov Disord 2005; 20:1585-91). This scale has four subscales: posture and gait disturbance, kinetic functions, speech disorders and oculomotor disorders. Subscale scores are summed to give a total score ranging from 0 to 100. High scores indicated worse ataxia. The Perdue Pegboard test, which assesses speed of performance, delicate movements and manipulative dexterity, was included in the course of the study. This test assesses the ability of the participant to insert as many nails as possible into preset holes, linearly dug in a wooden board in a limited space of time (20 seconds with the two hands, separately and together). The tests were administered by the same investigator. Patients were monitored for neutropenia, agranulocytosis, musculoskeletal pains and zinc deficiency and had weekly blood counts, plasma iron, serum ferritin and transferrin concentration measurements, as well as assessments of renal and liver function.
# [3] = International Cooperative Ataxia Rating Score (ICARS), phase I-II open trial in Friedreich ataxia patients; type: in vivo, human; conditions: for ICARS oculomotor disorder (/6) / ICARS posture and gait disturbance: gait speed / ICARS posture and gait disturbance: spread feet / ICARS speech disorder (/8) / ICARS posture and gait disturbance: standing eyes open / ICARS posture and gait disturbance: walking / ICARS kinetic function (/29) / ICARS posture and gait disturbance 7 items (/34): after trial
# Description: Ten adolescents (four males, six females aged 14 to 23 yrs) with a diagnosis of Friedreich ataxia, confirmed by detection of a trinucleotide-repeat expansion in the first intron of the frataxin gene, were studied. Patients received deferiprone (Ferriprox™, Apotex Inc., Toronto, Canada) orally, in two doses for 1-5 months. Three patients were included, sequentially, for a minimum period of two months at each dose. Patient enrollment was staggered by two-weeks to enable monitoring of response. In the absence of toxicity, and with evidence of efficacy in any of the first 3 patients, a second group of 3 patients would be included at the same dose for a total duration of 6 months. If there was an absence of both efficacy and toxicity, the second group of three patients would be administered a higher dose. If toxicity developed, the current dose would be suspended and the trial resumed with the next group of patients at a lower dose. The patients were on idebenone (10 mg/kg/day, in three doses) for at least two years prior to inclusion and were kept on the drug at the same dose for the duration of the trial. MRI examinations were done at inclusion and at 1, 2, 4 and 6 months. The protocol was promoted by Assistance Publique-Hopitaux de Paris and approved by the local ethical committee and registered at the National Health Authority (AFSSAPS) and at the International Protocol Registration System (www.clinicaltrials.gov). A written informed consent was obtained from patients and parents.
# as §3
# [4] = serum deferiprone time-concentration profile (HPLC) in the 52-week monkey study; type: in vivo, cynomolgus monkeys; conditions: monkeys, 75 mg/kg twice daily oral
# Procedure: as §1, §2
# Deferiprone was detectable (HPLC) from 0.5 h after dosing, and for up to 7 h.
# [5] = patient eight, DFP 20 mg/kg, 3 mth, prior to trial 4
# [6] = patient five, DFP 20 mg/kg, 5 mth, prior to trial 3
# [7] = patient one, DFP 20 mg/kg, 4 mth, prior to trial 2
# [8] = patient one, DFP 20 mg/kg, 4 mth, prior to trial 3
# [9] = patient seven, DFP 20 mg/kg, 2 mth, prior to trial 2
# [10] = patient seven, DFP 20 mg/kg, 2 mth, prior to trial 3
# [11] = patient six, DFP 20 mg/kg, 2 mth, prior to trial 3
# [12] = patient three, DFP 30 mg/kg, 1 mth, prior to trial 2
# [13] = patient two, DFP 30 mg/kg, 1 mth, prior to trial 0
structure (smiles),measurement,setting,value
"Cc1c(O)c(=O)ccn1C [deferiprone, 3-hydroxy-1,2-dimethylpyridin-4-one]","deferiprone-related effects on body weight, food intake, ophthalmology, cardiac conduction, blood pressure, heart rate, hematology or urine composition","[1]; 75 mg/kg twice daily, 52 weeks",no deferiprone-related effects
same,macroscopic findings at necropsy,"[1]; 75 mg/kg twice daily, 52 weeks",No macroscopic findings related to deferiprone were found
same,microscopic findings (histopathology),"[1]; 75 mg/kg twice daily, 52 weeks",No microscopic findings in non-iron-loaded monkeys could be attributed to treatment with deferiprone
same,overall adverse effect,"[1]; oral, 75 mg/kg twice daily for 52 weeks",without significant adverse effect
same,access to intracellular iron pools and chelation in cells,intracellular iron pools,readily enter most cells and efficiently reach the major intracellular sites of iron accumulation
same,speed of performances and dexterity (Perdue Pegboard),"[2]; 30 mg/kg/day group, before and 1-2 months after onset of the trial",an improvement of speed of performances and dexterity
same,Perdue pegboard (number of nails inserted with the two hands alone+together),"[2]; patient seven, DFP 20 mg/kg, 2 mth, prior to trial 37",29
same,Perdue pegboard (number of nails inserted with the two hands alone+together),"[2]; patient six, DFP 20 mg/kg, 2 mth, prior to trial 37",44
same,Perdue pegboard (number of nails inserted with the two hands alone+together),"[2]; patient two, DFP 30 mg/kg, 1 mth, prior to trial 52",39
same,change of ICARS scores,"[3]; 20 mg/kg/day, short period of the trial",mild changes of the ICARS scores
same,ICARS oculomotor disorder (/6),"[3]; patient eight, DFP 20 mg/kg, 3 mth, prior to trial 3",2
same,ICARS posture and gait disturbance: gait speed,[3]; [5],4
same,ICARS posture and gait disturbance: spread feet,[3]; [5],4
same,ICARS speech disorder (/8),[3]; [5],4
same,ICARS posture and gait disturbance: standing eyes open,"[3]; patient eight, DFP 20 mg/kg, 3 mth, prior to trial 6",6
same,ICARS posture and gait disturbance: walking,"[3]; patient eight, DFP 20 mg/kg, 3 mth, prior to trial 7",7
same,ICARS kinetic function (/29),"[3]; patient eight, DFP 20 mg/kg, 3 mth, prior to trial 21",21
same,ICARS posture and gait disturbance 7 items (/34),"[3]; patient eight, DFP 20 mg/kg, 3 mth, prior to trial 33",32
same,ICARS speech disorder (/8),"[3]; patient five, DFP 20 mg/kg, 5 mth, prior to trial 1",0
same,ICARS oculomotor disorder (/6),"[3]; patient five, DFP 20 mg/kg, 5 mth, prior to trial 2",2
same,ICARS posture and gait disturbance: gait speed,[3]; [6],3
same,ICARS posture and gait disturbance: spread feet,[3]; [6],2
same,ICARS posture and gait disturbance: standing eyes open,"[3]; patient five, DFP 20 mg/kg, 5 mth, prior to trial 4",4
same,ICARS posture and gait disturbance: walking,"[3]; patient five, DFP 20 mg/kg, 5 mth, prior to trial 7",7
same,ICARS kinetic function (/29),"[3]; patient five, DFP 20 mg/kg, 5 mth, prior to trial 8",7
same,ICARS posture and gait disturbance 7 items (/34),"[3]; patient five, DFP 20 mg/kg, 5 mth, prior to trial 28",27
same,ICARS posture and gait disturbance: gait speed,"[3]; patient one, DFP 20 mg/kg, 4 mth, prior to trial 1",1
same,ICARS oculomotor disorder (/6),[3]; [7],2
same,ICARS posture and gait disturbance: standing eyes open,[3]; [7],1
same,ICARS speech disorder (/8),[3]; [7],2
same,ICARS posture and gait disturbance: spread feet,[3]; [8],3
same,ICARS posture and gait disturbance: walking,[3]; [8],2
same,ICARS kinetic function (/29),"[3]; patient one, DFP 20 mg/kg, 4 mth, prior to trial 7",7
same,ICARS posture and gait disturbance 7 items (/34),"[3]; patient one, DFP 20 mg/kg, 4 mth, prior to trial 12",9
same,ICARS oculomotor disorder (/6),"[3]; patient seven, DFP 20 mg/kg, 2 mth, prior to trial 0",0
same,ICARS posture and gait disturbance: gait speed,"[3]; patient seven, DFP 20 mg/kg, 2 mth, prior to trial 1",1
same,ICARS posture and gait disturbance: spread feet,[3]; [9],2
same,ICARS speech disorder (/8),[3]; [9],2
same,ICARS posture and gait disturbance: standing eyes open,[3]; [10],1
same,ICARS posture and gait disturbance: walking,[3]; [10],3
same,ICARS kinetic function (/29),"[3]; patient seven, DFP 20 mg/kg, 2 mth, prior to trial 13",12
same,ICARS posture and gait disturbance 7 items (/34),"[3]; patient seven, DFP 20 mg/kg, 2 mth, prior to trial 16",13
same,ICARS oculomotor disorder (/6),"[3]; patient six, DFP 20 mg/kg, 2 mth, prior to trial 0",0
same,ICARS posture and gait disturbance: gait speed,"[3]; patient six, DFP 20 mg/kg, 2 mth, prior to trial 2",2
same,ICARS posture and gait disturbance: spread feet,[3]; [11],3
same,ICARS speech disorder (/8),[3]; [11],2
same,ICARS posture and gait disturbance: standing eyes open,"[3]; patient six, DFP 20 mg/kg, 2 mth, prior to trial 5",4
same,ICARS posture and gait disturbance: walking,"[3]; patient six, DFP 20 mg/kg, 2 mth, prior to trial 7",7
same,ICARS kinetic function (/29),"[3]; patient six, DFP 20 mg/kg, 2 mth, prior to trial 11",11
same,ICARS posture and gait disturbance 7 items (/34),"[3]; patient six, DFP 20 mg/kg, 2 mth, prior to trial 17",16
same,ICARS posture and gait disturbance: spread feet,"[3]; patient three, DFP 30 mg/kg, 1 mth, prior to trial 1",0
same,ICARS oculomotor disorder (/6),[3]; [12],2
same,ICARS posture and gait disturbance: gait speed,[3]; [12],2
same,ICARS posture and gait disturbance: standing eyes open,[3]; [12],1
same,ICARS posture and gait disturbance: walking,[3]; [12],2
same,ICARS speech disorder (/8),[3]; [12],2
same,ICARS kinetic function (/29),"[3]; patient three, DFP 30 mg/kg, 1 mth, prior to trial 8",8
same,ICARS posture and gait disturbance 7 items (/34),"[3]; patient three, DFP 30 mg/kg, 1 mth, prior to trial 11",8
same,ICARS oculomotor disorder (/6),[3]; [13],0
same,ICARS speech disorder (/8),[3]; [13],0
same,ICARS posture and gait disturbance: gait speed,"[3]; patient two, DFP 30 mg/kg, 1 mth, prior to trial 1",1
same,ICARS posture and gait disturbance: spread feet,"[3]; patient two, DFP 30 mg/kg, 1 mth, prior to trial 2",2
same,ICARS posture and gait disturbance: standing eyes open,"[3]; patient two, DFP 30 mg/kg, 1 mth, prior to trial 3",2
same,ICARS posture and gait disturbance: walking,"[3]; patient two, DFP 30 mg/kg, 1 mth, prior to trial 7",7
same,ICARS kinetic function (/29),"[3]; patient two, DFP 30 mg/kg, 1 mth, prior to trial 9",9
same,ICARS posture and gait disturbance 7 items (/34),"[3]; patient two, DFP 30 mg/kg, 1 mth, prior to trial 20",17
same,peak concentration relative to thalassemia patients on 25 mg/kg three times daily,[4],about three times
CC(=O)N(O)CCCCCNC(=O)CCC(=O)N(O)CCCCCNC(=O)CCC(=O)N(O)CCCCCN [desferrioxamine],access to intracellular iron pools and chelation in cells,intracellular iron pools,slow
